In PubChem BioAssay AID1963839 (Molecular Pharmacology Branch, DTP, NCI, 2024):

Tested on: 817829-284-R-J1-PDC complex spheroid viability
Assay: Anticancer human tumor 817829-284-R-J1-PDC patient-derived colon adenocarcinoma cell line growth inhibition [POLQ]
Conditions: for IC50: curve of first compound; for viability, T/C: stronger effect = lower value
Method in brief: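 PDC + HUVEC + MSC complex spheroids; POLQ inhibitors ± partner drugs; top conc. at/near clinical Cmax, else 10 microM (SN-38 1 microM), half-log dilutions; 37 degrees C, 5% CO2.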

[1] = second compound 0.0316 µM, first compound 0.0316 µM
[2] = second compound 0.0316 µM, first compound 0.1 µM
[3] = second compound 0.0316 µM, first compound 0.316 µM
[4] = second compound 0.0316 µM, first compound 1 µM
[5] = second compound 0.0316 µM, first compound 3.16 µM
[6] = second compound 0.0316 µM, first compound 10 µM
[7] = second compound 0.1 µM, first compound 0.0316 µM
[8] = second compound 0.1 µM, first compound 0.1 µM
[9] = second compound 0.1 µM, first compound 0.316 µM
[10] = second compound 0.1 µM, first compound 1 µM
[11] = second compound 0.1 µM, first compound 3.16 µM
[12] = second compound 0.1 µM, first compound 10 µM
[13] = second compound 0.316 µM, first compound 0.0316 µM
[14] = second compound 0.316 µM, first compound 0.1 µM
[15] = second compound 0.316 µM, first compound 0.316 µM
[16] = second compound 0.316 µM, first compound 1 µM
[17] = second compound 0.316 µM, first compound 3.16 µM
[18] = second compound 0.316 µM, first compound 10 µM
[19] = second compound 1 µM, first compound 0.0316 µM
[20] = second compound 1 µM, first compound 0.1 µM
[21] = second compound 1 µM, first compound 0.316 µM
[22] = second compound 1 µM, first compound 1 µM
[23] = second compound 1 µM, first compound 3.16 µM
[24] = second compound 1 µM, first compound 10 µM
[25] = second compound 3.16 µM, first compound 0.0316 µM
[26] = second compound 3.16 µM, first compound 0.1 µM
[27] = second compound 3.16 µM, first compound 0.316 µM
[28] = second compound 3.16 µM, first compound 1 µM
[29] = second compound 3.16 µM, first compound 3.16 µM
[30] = second compound 3.16 µM, first compound 10 µM
[31] = second compound 10 µM, first compound 0.0316 µM
[32] = second compound 10 µM, first compound 0.1 µM
[33] = second compound 10 µM, first compound 0.316 µM
[34] = second compound 10 µM, first compound 1 µM
[35] = second compound 10 µM, first compound 3.16 µM
[36] = second compound 10 µM, first compound 10 µM
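Also: spheroids exposed to compounds for 7 days.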
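For viability, T/C in this document: 100% = DMSO vehicle-treated spheroids.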

CCc1cc2c(N3CCc4c(cc(Cn5ccnc5)cc4-c4cn(C)nc4C(F)(F)F)C3=O)cc(C)nc2c(OC)n1 + Nc1ccc(C#CCN(C(=O)Cc2ncc(C(F)(F)F)cc2C(F)(F)F)c2ccc(F)cc2)nn1
IC50 (second compound 0.0316 µM): 1750 nM
IC50 (second compound 0.1 µM): 2070 nM
IC50 (second compound 0.316 µM): 1650 nM
IC50 (second compound 1 µM): 2190 nM
IC50 (second compound 3.16 µM): 973 nM
IC50 (second compound 10 µM): 963 nM
viability, T/C [1]: 85.5%
viability, T/C [2]: 73.8%
viability, T/C [3]: 67.8%
viability, T/C [4]: 56.1%
viability, T/C [5]: 43.7%
viability, T/C [6]: 31.4%
viability, T/C [7]: 101%
viability, T/C [8]: 80.5%
viability, T/C [9]: 71.9%
viability, T/C [10]: 62.2%
viability, T/C [11]: 46.7%
viability, T/C [12]: 26.7%
viability, T/C [13]: 92.9%
viability, T/C [14]: 80.3%
viability, T/C [15]: 71.7%
viability, T/C [16]: 57.1%
viability, T/C [17]: 40.4%
viability, T/C [18]: 30%
viability, T/C [19]: 87%
viability, T/C [20]: 66.3%
viability, T/C [21]: 72.4%
viability, T/C [22]: 82.6%
viability, T/C [23]: 37.3%
viability, T/C [24]: 23%
viability, T/C [25]: 98%
viability, T/C [26]: 76.7%
viability, T/C [27]: 65.5%
viability, T/C [28]: 49%
viability, T/C [29]: 37.8%
viability, T/C [30]: 29.1%
viability, T/C [31]: 101%
viability, T/C [32]: 71.3%
viability, T/C [33]: 68.5%
viability, T/C [34]: 50.2%
viability, T/C [35]: 38.3%
viability, T/C [36]: 30.4%

CCc1cc2c(N3CCc4c(cc(Cn5ccnc5)cc4-c4cn(C)nc4C(F)(F)F)C3=O)ccnc2c(OC)n1 + Nc1ccc(C#CCN(C(=O)Cc2ncc(C(F)(F)F)cc2C(F)(F)F)c2ccc(F)cc2)nn1
IC50 (second compound 0.0316 µM): 2590 nM
IC50 (second compound 0.1 µM): 2410 nM
IC50 (second compound 0.316 µM): 2610 nM
IC50 (second compound 1 µM): 2330 nM
IC50 (second compound 3.16 µM): 3440 nM
IC50 (second compound 10 µM): 2630 nM
viability, T/C [1]: 84.2%
viability, T/C [2]: 77.9%
viability, T/C [3]: 84.1%
viability, T/C [4]: 76.3%
viability, T/C [5]: 44.5%
viability, T/C [6]: 29.7%
viability, T/C [7]: 83.7%
viability, T/C [8]: 82.7%
viability, T/C [9]: 78.2%
viability, T/C [10]: 67.9%
viability, T/C [11]: 44%
viability, T/C [12]: 37.5%
viability, T/C [13]: 86.3%
viability, T/C [14]: 74.6%
viability, T/C [15]: 64%
viability, T/C [16]: 64.8%
viability, T/C [17]: 49%
viability, T/C [18]: 34%
viability, T/C [19]: 83.6%
viability, T/C [20]: 70.5%
viability, T/C [21]: 74.8%
viability, T/C [22]: 60.7%
viability, T/C [23]: 44.8%
viability, T/C [24]: 31%
viability, T/C [25]: 97.5%
viability, T/C [26]: 95%
viability, T/C [27]: 72.7%
viability, T/C [28]: 68.8%
viability, T/C [29]: 52.1%
viability, T/C [30]: 33.9%
viability, T/C [31]: 83.8%
viability, T/C [32]: 84%
viability, T/C [33]: 69.7%
viability, T/C [34]: 67.3%
viability, T/C [35]: 45.5%
viability, T/C [36]: 31.4%

COc1cc2cc(C(=O)CCC(=O)O)sc2cc1OC + Nc1ccc(C#CCN(C(=O)Cc2ncc(C(F)(F)F)cc2C(F)(F)F)c2ccc(F)cc2)nn1
IC50 (second compound 0.0316 µM): > 10000 nM
IC50 (second compound 0.1 µM): > 10000 nM
IC50 (second compound 0.316 µM): > 10000 nM
IC50 (second compound 1 µM): > 10000 nM
IC50 (second compound 3.16 µM): > 10000 nM
IC50 (second compound 10 µM): > 10000 nM
viability, T/C [1]: 91.1%
viability, T/C [2]: 98.4%
viability, T/C [3]: 90.1%
viability, T/C [4]: 110%
viability, T/C [5]: 136%
viability, T/C [6]: 99.3%
viability, T/C [7]: 99.4%
viability, T/C [8]: 97.4%
viability, T/C [9]: 101%
viability, T/C [10]: 86.8%
viability, T/C [11]: 105%
viability, T/C [12]: 105%
viability, T/C [13]: 93.1%
viability, T/C [14]: 101%
viability, T/C [15]: 114%
viability, T/C [16]: 110%
viability, T/C [17]: 108%
viability, T/C [18]: 110%
viability, T/C [19]: 96.1%
viability, T/C [20]: 97%
viability, T/C [21]: 104%
viability, T/C [22]: 95.9%
viability, T/C [23]: 103%
viability, T/C [24]: 112%
viability, T/C [25]: 102%
viability, T/C [26]: 107%
viability, T/C [27]: 99.7%
viability, T/C [28]: 112%
viability, T/C [29]: 117%
viability, T/C [30]: 108%
viability, T/C [31]: 99.8%
viability, T/C [32]: 109%
viability, T/C [33]: 98.1%
viability, T/C [34]: 95.3%
viability, T/C [35]: 93%
viability, T/C [36]: 91.7%

COc1ccc([C@@H](O)c2cc(-c3ncnc4cc(N5CCOCC5)ccc34)c(F)cc2Cl)nn1 + Nc1ccc(C#CCN(C(=O)Cc2ncc(C(F)(F)F)cc2C(F)(F)F)c2ccc(F)cc2)nn1
IC50 (second compound 0.0316 µM): 1190 nM
IC50 (second compound 0.1 µM): 701 nM
IC50 (second compound 0.316 µM): 1190 nM
IC50 (second compound 1 µM): 925 nM
IC50 (second compound 3.16 µM): 1120 nM
IC50 (second compound 10 µM): 460 nM
viability, T/C [1]: 109%
viability, T/C [2]: 85.4%
viability, T/C [3]: 85%
viability, T/C [4]: 52%
viability, T/C [5]: 28.9%
viability, T/C [6]: 17.7%
viability, T/C [7]: 121%
viability, T/C [8]: 89.8%
viability, T/C [9]: 63.5%
viability, T/C [10]: 42.4%
viability, T/C [11]: 33.9%
viability, T/C [12]: 23.3%
viability, T/C [13]: 96.8%
viability, T/C [14]: 83.2%
viability, T/C [15]: 77.9%
viability, T/C [16]: 55.3%
viability, T/C [17]: 27.9%
viability, T/C [18]: 20.7%
viability, T/C [19]: 98.3%
viability, T/C [20]: 86.8%
viability, T/C [21]: 71.8%
viability, T/C [22]: 46.5%
viability, T/C [23]: 32.1%
viability, T/C [24]: 19.1%
viability, T/C [25]: 103%
viability, T/C [26]: 86%
viability, T/C [27]: 65%
viability, T/C [28]: 55.2%
viability, T/C [29]: 34.2%
viability, T/C [30]: 20.9%
viability, T/C [31]: 106%
viability, T/C [32]: 74.3%
viability, T/C [33]: 56.5%
viability, T/C [34]: 39.1%
viability, T/C [35]: 28.5%
viability, T/C [36]: 16%
